Results on 25 molecules are retold here after patent US20060116390A1, “Hepatitis c virus inhibitors” (priority 2003, published 2006).

In the assay the test system is HCV proteins in Rep5.1 cells (replicon cell line). The assay can be described thus: Inhibitory activity of HCV: cell-based ELISA in replicon cell line Rep5.1 (decrease of HCV proteins). Also noted: species or system hepatitis C virus. To be noted: Hepatitis C virus, 72 h, Rep5.1 cells, 72 hours with drug. The procedure: In order to, screen and evaluate the anti-HCV therapeutic agents in cell level, the following experiments are carried out using a replicon cell line, Rep5.1 [Lohmann, et al., Replication of subgenomic hepatitis C virus RNAs in a hepatoma cell line. Science 285:110-113 (1999)].
Rep5.1 cells, the replicon cell line, are cultured in DMEM-10 containing 500 μg/ml of G418. The Rep5.1 cells in log phase are suspended by trypsin treatment, and 5000 cells are distributed to each well of a 96-well plate. After 4 hours when the cells are attached to the plate, the serially diluted drug is added to each well. After 48 hours, a part of the treated cells are observed by microscope, and MTT assay is carried out to evaluate the drug toxicity. The cytotoxicity is estimated in percentage based on the control containing no drug. After 72 hours, the remaining cells are fixed by methanol/acetone (50/50, v/v), and the decrease of HCV proteins is measured by using HCV antibody. The extent of decrease is estimated in percentage based on the control containing no drug, and the concentration of drug at which 50% of proteins is decreased is determined to be IC50. The compounds showing activity via this procedure are validated by Western blotting. In order to find out whether the decrease of HCV protein is related to the decrease of replicon RNA, Rep5.1 cell is treated with some selected drugs for 72 hours, RNA is purified, dot blotted, and hybridized with isotope labelled nucleic acid to determine the amounts of actin mRNA and replicon RNA, and finally the amount of RNA is compared.
Plasma samples from 300 persons positive to the hepatitis C antibody test were screened by antibody diagnosis kit produced by LG life Sciences Ltd. (LG HCD3.0 TMB) to select 40 plasma samples having high titer. Replicon cell line and Huh-7 cell line each were cultured in a 96-well cell culture plate, fixed by methanol/acetone (1:1) mixture, and blocked by 3% skimmed milk. The 40 plasma sanples selected above were 100-fold diluted and aided thereto, and the bound antibodies were probed by anti-Human goat antibody (Sigma) to which Horse Radish Peroxidase is attached. As a result, 12 plasma samples having low specificity to Huh-7 cell line, but high specificity to replicon cell line were obtained. These plasma samples were used in the following cell-based ELISA.
Rep5.1 cells were cultured in DMEM-10 containing 500 μg/ml of G418. The Rep5.1 cells in log phase were suspended by trypsin treatment, and 5000 cells were distributed to each well of a 96-well pate. After 4 hours for which the cells were attached to the plate, the serially diluted drug was added to each well. After 72 hours, the cells were fixed by methanol/acetone (50/50, v/v), and the decrease of HCV proteins was measured by using HCV antibody obtained as above. The extent of decrease was estimated in percentage based on the control containing no drug, and the concentration of drug at which 50% of proteins was decreased was determined to be IC50.

Where [1] appears, read: concentration at which 50% of HCV proteins was decreased, Table 2, read-out: IC50.
Setting [2] is: decrease of HCV proteins measured by HCV antibody, Table 1, read-out: Level (IC50 values classified).

The structures appear in SMILES notation. Read-outs that look alike come from different tables or passages of the source.

Consider `CC1=C(C(=O)OC(C)Cc2ccsc2Br)C(CF)NC(=S)N1` (centres unmarked) [27′, 4-fluoromethyl-6-methyl-2-thioxo-1,2,3,4-tetrahydro-pyrimidine-5-carboxylic acid 2-(2-bromo-thiophen-3-yl)-1-methyl-ethyl ester], for which the IC50 runs as follows: under setting [1], under 400 nM; under setting [2], under 1000 nM.

`CC1=C(C(=O)OCCc2ccc(OCc3ccccc3)cc2)C(CO)NC(=S)N1` (centres unmarked) [27″, 4-hydroxymethyl-6-methyl-2-thioxo-1,2,3,4-tetrahydro-pyrimidine-5-carboxylic acid 2-(4-benzyloxy-phenyl)-ethyl ester]: the IC50 is 400 nM under setting [1] and under 1000 nM under setting [2].

As to `CC1=C(C(=O)OCCc2csc([N+](=O)[O-])c2)C(CF)NC(=S)N1` (centres unmarked) [28′, 4-fluoromethyl-6-methyl-2-thioxo-1,2,3,4-tetrahydro-pyrimidine-5-carboxylic acid 2-(5-nitro-thiophen-3-yl)-ethyl ester], the IC50 under setting [1] came to 72000 nM and the IC50 under setting [2] was over 20000 nM.

Consider `CC1=C(C(=O)OCc2ccc(-c3ccccc3)cc2)C(CO)NC(=S)N1` (centres unmarked) [28″, 4-hydroxymethyl-6-methyl-2-thioxo-1,2,3,4-tetrahydro-pyrimidine-5-carboxylic acid biphenyl-4-ylmethyl ester], for which the IC50 is 1000 nM under setting [1] and under 1000 nM under setting [2].

In the case of `CC1=C(C(=O)OCCc2ccsc2)C2(CCCC2)NC(=S)N1` [29′, 9-methyl-7-thioxo-6,8-diaza-spiro[4.5]dec-9-ene-10-carboxylic acid 2-thiophen-3-yl-ethyl ester], the IC50 was 12000 nM under setting [1] and 10000 to 20000 nM under setting [2].

Regarding `CSCCCOC(=O)C1=C(C)NC(=S)NC1CO` (centres unmarked) [29″, 4-hydroxymethyl-6-methyl-2-thioxo-1,2,3,4-tetrahydro-pyrimidine-5-carboxylic acid 3-methylsulfanyl-propyl ester], the IC50 is over 100000 nM under setting [1] and over 20000 nM under setting [2].

As to `CC1=C(C(=O)OCc2noc(C)n2)CNC(=S)N1` [30′, 6-methyl-2-thioxo-1,2,3,4-tetrahydro-pyrimidine-5-carboxylic acid 5-methyl-[1,2,4]oxadiazol-3-ylmethyl ester], the IC50 reads like this: under setting [1], over 100000 nM; under setting [2], over 20000 nM.

For the molecule `CCOc1ccccc1CCOC(=O)C1=C(C)NC(=S)NC1CS(=O)(=O)C(C)(C)C` (centres unmarked) [30″, 6-methyl-4-(2-methyl-propane-2-sulfonylmethyl)-2-thioxo-1,2,3,4-tetrahydro-pyrimidine-5-carboxylic acid 2-(2-ethoxy-phenyl)-ethyl ester], the IC50 by setting is: under setting [1], 50000 nM; under setting [2], over 20000 nM.

As to `CC1=C(C(=O)OCCCc2ccccc2)C(CF)NC(=S)N1` (centres unmarked) [31′, 4-fluoromethyl-6-methyl-2-thioxo-1,2,3,4-tetrahydro-pyrimidine-5-carboxylic acid 3-phenyl-propyl ester], the IC50 under setting [1] was 400 nM and the IC50 under setting [2] was under 1000 nM.

As for `CC1=C(C(=O)OCCc2cccc(Cl)c2)C(CO)NC(=S)N1` (centres unmarked) [31″, 4-hydroxymethyl-6-methyl-2-thioxo-1,2,3,4-tetrahydro-pyrimidine-5-carboxylic acid 2-(3-chloro-phenyl)-ethyl ester], the IC50 under setting [1] was determined as 1000 nM and the IC50 under setting [2] is under 1000 nM.

With `CC1=C(C(=O)OCCc2ccc(F)cc2)C(CF)NC(=S)N1` (centres unmarked) [32′, 4-fluoromethyl-6-methyl-2-thioxo-1,2,3,4-tetrahydro-pyrimidine-5-carboxylic acid 2-(4-fluoro-phenyl)-ethyl ester], the IC50 is 900 nM under setting [1] and under 1000 nM under setting [2].

As to `CC1=C(C(=O)OCCc2cccc([N+](=O)[O-])c2)C(CO)NC(=S)N1` (centres unmarked) [32″, 4-hydroxymethyl-6-methyl-2-thioxo-1,2,3,4-tetrahydro-pyrimidine-5-carboxylic acid 2-(3-nitro-phenyl)-ethyl ester], the IC50 reads like this: under setting [1], 6000 nM; under setting [2], 1000 to 10000 nM.

`CC1=C(C(=O)OCCc2ccccc2)C(CF)NC(=S)N1` (centres unmarked) [33′, 4-fluoromethyl-6-methyl-2-thioxo-1,2,3,4-tetrahydro-pyrimidine-5-carboxylic acid phenethyl ester]: the IC50 is 1000 nM under setting [1] and under 1000 nM under setting [2].

Take `CC1=C(C(=O)OCc2cccc(SC(F)(F)F)c2)C(CO)NC(=S)N1` (centres unmarked) [33″, 4-hydroxymethyl-6-methyl-2-thioxo-1,2,3,4-tetrahydro-pyrimidine-5-carboxylic acid 3-trifluoromethylsulfanyl-benzyl ester]: the IC50 is, setting by setting: under setting [1], under 400 nM; under setting [2], under 1000 nM.

For `CC1=C(C(=O)OCc2ccc(Cl)cc2)C(CF)NC(=S)N1` (centres unmarked) [34′, 4-fluoromethyl-6-methyl-2-thioxo-1,2,3,4-tetrahydro-pyrimidine-5-carboxylic acid 4-chloro-benzyl ester], the IC50 was 700 nM under setting [1] and under 1000 nM under setting [2].

As for `CC1=C(C(=O)OCc2cc(Cl)cc(Cl)c2)C(CO)NC(=S)N1` (centres unmarked) [34″, 4-hydroxymethyl-6-methyl-2-thioxo-1,2,3,4-tetrahydro-pyrimidine-5-carboxylic acid 3,5-dichloro-benzyl ester], the IC50 was 2600 nM under setting [1] and 1000 to 10000 nM under setting [2].

`CC1=C(C(=O)OCc2cc(C)cc(C)c2)C(CF)NC(=S)N1` (centres unmarked) [35′, 4-fluoromethyl-6-methyl-2-thioxo-1,2,3,4-tetrahydro-pyrimidine-5-carboxylic acid 3,5-dimethyl-benzyl ester]: the IC50 under setting [1] was 800 nM and the IC50 under setting [2] is under 1000 nM.

As for `CC1=C(C(=O)OCCc2ccc(Cl)cc2)C(CO)NC(=S)N1` (centres unmarked) [35″, 4-hydroxymethyl-6-methyl-2-thioxo-1,2,3,4-tetrahydro-pyrimidine-5-carboxylic acid 2-(4-chloro-phenyl)-ethyl ester], the IC50 runs as follows: under setting [1], 1600 nM; under setting [2], 1000 to 10000 nM.

On to `COc1ccc(Cl)cc1COC(=O)C1=C(C)NC(=S)NC1CF` (centres unmarked) [36′, 4-fluoromethyl-6-methyl-2-thioxo-1,2,3,4-tetrahydro-pyrimidine-5-carboxylic acid 5-chloro-2-methoxy-benzyl ester], for which the IC50 under setting [1] turned out to be 1700 nM and the IC50 under setting [2] was 1000 to 10000 nM.

Consider `CC1=C(C(=O)OCCC2CCCC2)C(CO)NC(=S)N1` (centres unmarked) [36″, 4-hydroxymethyl-6-methyl-2-thioxo-1,2,3,4-tetrahydro-pyrimidine-5-carboxylic acid 2-cyclopentyl-ethyl ester], for which the IC50 was 3000 nM under setting [1] and 1000 to 10000 nM under setting [2].

As to `CC1=C(C(=O)OCc2ccccc2C(F)(F)F)C(CF)NC(=S)N1` (centres unmarked) [37′, 4-fluoromethyl-6-methyl-2-thioxo-1,2,3,4-tetrahydro-pyrimidine-5-carboxylic acid 2-trifluoromethyl-benzyl ester], the IC50 is, setting by setting: under setting [1], 600 nM; under setting [2], under 1000 nM.

In the case of `CC1=C(C(=O)OCCc2cc(C)cc(C)c2)C(CO)NC(=S)N1` (centres unmarked) [37″, 4-hydroxymethyl-6-methyl-2-thioxo-1,2,3,4-tetrahydro-pyrimidine-5-carboxylic acid 2-(3,5-dimethyl-phenyl)-ethyl ester], the concentration for half-maximal inhibition (IC50) reads like this: under setting [1], 800 nM; under setting [2], under 1000 nM.

Take `CC1=C(C(=O)SCc2ccco2)CNC(=S)N1` [38′, 6-methyl-2-thioxo-1,2,3,4-tetrahydro-pyrimidine-5-carbothioic acid S-furan-2-ylmethyl ester]: the IC50 is 700 nM under setting [1] and under 1000 nM under setting [2].

Regarding `CC1=C(C(=O)OCCc2cccc(C(F)(F)F)c2)C(CO)NC(=S)N1` (centres unmarked) [38″, 4-hydroxymethyl-6-methyl-2-thioxo-1,2,3,4-tetrahydro-pyrimidine-5-carboxylic acid 2-(3-trifluoromethyl-phenyl)-ethyl ester], the IC50 is under 400 nM under setting [1] and under 1000 nM under setting [2].

`CC1=C(C(=O)SCc2ccco2)C(CF)NC(=S)N1` (centres unmarked) [39′, 4-fluoromethyl-6-methyl-2-thioxo-1,2,3,4-tetrahydro-pyrimidine-5-carbothioic acid S-furan-2-ylmethyl ester]: the IC50 runs as follows: under setting [1], 2600 nM; under setting [2], 1000 to 10000 nM.
